Literature values in patent US20180094248A1, “Necroptosis Signaling as a Therapeutic Target for Alzheimer's Disease” (Arizona Board of Regents on behalf of Arizona State …, priority 2016, published 2018).

What was measured:
RIPK3 = RIPK3 (Homo sapiens, UniProt Q9Y572); settings: Kaiser et al., 2013, J. Biol. Chem. 288:31268; cited from earlier work
MLKL = target: T1, MLKL (Homo sapiens, UniProt Q8NB16); settings: Sun et al., 2012, Cell 148:213-27; cited from earlier work
T1 sequence (Q8NB16 1-471): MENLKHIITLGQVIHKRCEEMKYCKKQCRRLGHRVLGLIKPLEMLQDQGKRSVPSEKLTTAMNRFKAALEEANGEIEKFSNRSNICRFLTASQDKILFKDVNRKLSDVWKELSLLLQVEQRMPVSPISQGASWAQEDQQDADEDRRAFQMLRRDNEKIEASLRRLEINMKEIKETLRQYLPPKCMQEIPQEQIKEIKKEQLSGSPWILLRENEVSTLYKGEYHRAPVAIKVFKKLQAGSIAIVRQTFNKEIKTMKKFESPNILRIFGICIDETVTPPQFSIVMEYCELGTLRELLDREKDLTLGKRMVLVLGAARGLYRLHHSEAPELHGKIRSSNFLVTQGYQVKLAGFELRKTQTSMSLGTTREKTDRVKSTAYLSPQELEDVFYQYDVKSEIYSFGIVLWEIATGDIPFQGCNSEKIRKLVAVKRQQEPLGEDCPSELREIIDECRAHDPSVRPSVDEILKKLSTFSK

Chain of RIPK3 (Q9Y572 whole entry): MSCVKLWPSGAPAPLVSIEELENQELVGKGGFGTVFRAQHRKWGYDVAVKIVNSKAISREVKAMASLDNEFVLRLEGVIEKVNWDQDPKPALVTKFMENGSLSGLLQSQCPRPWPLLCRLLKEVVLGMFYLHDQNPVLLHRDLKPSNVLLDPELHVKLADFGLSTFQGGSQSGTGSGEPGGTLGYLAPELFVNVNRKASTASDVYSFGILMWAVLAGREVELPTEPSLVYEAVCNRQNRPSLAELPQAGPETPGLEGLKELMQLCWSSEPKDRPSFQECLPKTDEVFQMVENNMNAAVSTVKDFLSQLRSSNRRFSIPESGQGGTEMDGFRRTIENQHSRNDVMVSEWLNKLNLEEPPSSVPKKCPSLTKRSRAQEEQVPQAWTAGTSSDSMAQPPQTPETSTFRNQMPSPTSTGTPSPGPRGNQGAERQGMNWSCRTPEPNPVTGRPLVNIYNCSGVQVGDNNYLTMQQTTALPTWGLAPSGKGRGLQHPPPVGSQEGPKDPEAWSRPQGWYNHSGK

Compound | inhibition of RIPK3 (selectivity) (RIPK3) | inhibition of MLKL (selectivity) (MLKL)
CC(C)S(=O)(=O)c1ccc2nccc(Nc3ccc4scnc4c3)c2c1 [GSK'872, N-(6-(Isopropylsulfonyl)quinolin-4-yl)benzo[d]thiazol-5-amine] | selectively inhibits RIPK3 | –
COc1nccnc1NS(=O)(=O)c1ccc(NC(=O)/C=C/c2ccc([N+](=O)[O-])s2)cc1 [necrosulfonamide, (E)-N-[4-[[(3-Methoxy-2-pyrazinyl)amino]sulfonyl]phenyl]-3-(5-nitro-2-thienyl)-2-propenamide] | – | selectively inhibits MLKL
